The numbers were not newly measured in patent publication EP3290412A1, “HIV-1 NUCLEOCAPSID INHIBITORS” (Università degli Studi di Siena, priority 2016, dated 2018), which cites them from elsewhere.

Marks after values point to notes of the source that are not given here.

The test system of data set [1] is NIH Catalogue Number: 12231. The settings on record: cited from earlier work; for Level of resistance: NNRTI resistant strain 12231; for Fold change: strain 12231, resistant virus IC50 to wild-type reference virus IC50 ratio, cut-off in brackets.
The test system of data set [2] is NIH Catalogue Number: 12229. The settings on record: cited from earlier work; for Level of resistance: NNRTI resistant strain 12229; for Fold change: strain 12229, resistant virus IC50 to wild-type reference virus IC50 ratio, cut-off in brackets.
The subject of data set [3] is NIH Catalogue Number: 7401. To be noted: cited from earlier work; for Level of resistance: NRTI resistant strain 7401; for Fold change: strain 7401, resistant virus IC50 to wild-type reference virus IC50 ratio, cut-off in brackets.
The test system of data set [4] is NIH Catalogue Number: 7400. To be noted: cited from earlier work; for Level of resistance: NRTI resistant strain 7400; for Fold change: strain 7400, resistant virus IC50 to wild-type reference virus IC50 ratio, cut-off in brackets.
Data set [5] concerns NIH Catalogue Number: 11808. The settings on record: cited from earlier work; for Level of resistance: PI resistant strain 11808; for Fold change: strain 11808, resistant virus IC50 to wild-type reference virus IC50 ratio, cut-off in brackets.
For data set [6], the system named is NIH Catalogue Number: 12465. The settings on record: cited from earlier work; for Level of resistance: PI resistant strain 12465; for Fold change: strain 12465, resistant virus IC50 to wild-type reference virus IC50 ratio, cut-off in brackets.
Data set [7] has as its system NIH Catalogue Number: 11845. To be noted: INI resistant strain 11845; cited from earlier work.

For the molecule `O=C1Nc2ccc(Cl)cc2[C@@](C#CC2CC2)(C(F)(F)F)O1` [Efavirenz], in data set [1], the Level of resistance entry is reported as “High resistance” and the Fold change is reported as 90 (3^b). Moreover, in data set [2], the Level of resistance entry is “High resistance” and the Fold change is on record as >200 (3^b).

Turning to `Nc1nc(NC2CC2)c2ncn([C@H]3C=C[C@@H](CO)C3)c2n1` [Abacavir], in data set [3], the Level of resistance result was “High resistance” and the Fold change is 7.4 (4.5^c). Besides, in data set [4], the Level of resistance entry was “High resistance” and the Fold change is 7.7 (4.5^c).

`Cc1cccc(C)c1OCC(=O)N[C@@H](Cc1ccccc1)[C@@H](O)C[C@H](Cc1ccccc1)NC(=O)[C@H](C(C)C)N1CCCNC1=O` [Lopinavir]: the Level of resistance result in data set [5] was “High resistance”; in data set [6] it was “Intermediate resistance”. For the same molecule, the values for the Fold change in data set [5] and in data set [6] were 70 (10^c) and 36 (10^c), respectively.

With `C[C@H](Cn1cnc2c(N)ncnc21)OCP(=O)(O)O` [Tenofovir], the Level of resistance result in data set [3] and in data set [4] was “High resistance” each time. The Fold change in data set [3] is on record as 1.5 (1.4^c); in data set [4], 2.3 (1.4^c).

Turning to `Cc1ccnc2c1NC(=O)c1cccnc1N2C1CC1` [Nevirapine], in data set [1], the Level of resistance entry was “High resistance” and the Fold change was >200 (4.5^b). Also, in data set [2], the Level of resistance entry was “High resistance” and the Fold change is >200 (4.5^b).

In the case of `Cc1cn([C@H]2C[C@H](N=[N+]=[N-])[C@@H](CO)O2)c(=O)[nH]c1=O` [Zidovudine], in data set [3], the Level of resistance result is recorded as “High resistance” and the Fold change is 24 (1.9^b). Moreover, in data set [4], the Level of resistance result is listed as “High resistance” and the Fold change is 61 (1.9^b).

For the molecule `Nc1nc(=O)n([C@@H]2CS[C@H](CO)O2)cc1F` [Emtricitabine], the Level of resistance entry in data set [3] and in data set [4] was “High resistance” each time. Moreover, the Fold change in data set [3] and in data set [4] was >200 (3.5^c) in each case.

Take `COC(=O)N[C@H](C(=O)N[C@@H](Cc1ccccc1)[C@@H](O)CN(Cc1ccc(-c2ccccn2)cc1)NC(=O)[C@@H](NC(=O)OC)C(C)(C)C)C(C)(C)C` [Atazanavir]: in data set [5], the Level of resistance entry is “High resistance” and the Fold change is recorded as 90 (2.2^c). In addition, in data set [6], the Level of resistance entry is listed as “High resistance” and the Fold change was 110 (2.2^c).

Regarding `COc1cc2c(cc1Cc1cccc(Cl)c1F)c(=O)c(C(=O)O)cn2[C@H](CO)C(C)C` [Elvitegravir™, Elvitegravir], the Level of resistance result in data set [7] was “Intermediate”.

For `CC(C)CN(C[C@@H](O)[C@H](Cc1ccccc1)NC(=O)O[C@H]1CO[C@H]2OCC[C@H]21)S(=O)(=O)c1ccc(N)cc1` [Darunavir], in data set [5], the Level of resistance entry was “High resistance” and the Fold change is 127 (10^c). In addition, in data set [6], the Level of resistance entry was “Susceptible” and the Fold change was 5.2 (10^c).

With `Cc1cc(C#N)cc(C)c1Oc1nc(Nc2ccc(C#N)cc2)nc(N)c1Br` [Etravirine], in data set [1], the Level of resistance result was “High resistance” and the Fold change was 8.8 (2.9^c). For the same molecule, in data set [2], the Level of resistance result is reported as “High resistance” and the Fold change is 6.8 (2.9^c).
